# Measured values from patent US12533353B2, “Methods of treatment of cancer comprising CDC7 inhibitors” (CARNA BIOSCIENCES, INC., priority 2018, dated 2026).
# Read-outs that look alike come from different tables or passages of the source.
# Legend:
# MV-4-11 tumor xenografts = assay: Rat xenograft model of AML (MV-4-11), SRA141 monotherapy; format: in vivo; settings: 75 mg/kg
# EOL-1 = assay: AML 3D culture, 5 days; format: cell-based; settings: Homo sapiens, EOL1; EOL-1 cell line
# Procedure: (§1) The activity of SRA141 was investigated in in vitro and ex vivo three-dimensional (3D) cultures prepared from three AML cell lines (EOL-1, Molm-16 and MV-4-11) and three AML PDX models (AM5512, AM7440 and AM7577), respectively. Tumor cultures were treated with SRA141 (0.08 to 33 μM) for 5 days.
# MV-4-11 = assay: AML 3D culture, 5 days; format: cell-based; settings: Homo sapiens, MV4-11; MV-4-11 cell line
# Procedure: as §1
# Molm-16 = assay: AML 3D culture, 5 days; format: cell-based; settings: MOLM16; Molm-16 cell line
# Procedure: as §1
# OAT3 = OAT3 (Homo sapiens, UniProt Q8TCC7); assay: In vitro transporter inhibition; format: in vitro ADME
# [1] = Absolute oral bioavailability; settings: in vivo, free base suspension, fasted, range given for mouse, rat and dog together, read-out: absolute oral bioavailability (% F)
# [2] = 4-cycle repeat oral dose toxicology study (5 days on/2 days off); format: in vivo, rat; settings: for Cmax / AUC(0-t): plasma, po; for AUC(0-t): read-out: AUC24 h
# Procedure: (§2) Toxicology studies evaluating SRA141 were conducted in rat and dog following single and repeat oral dosing for up to 4 cycles (5 days on/2 days off per cycle). In addition, the potential genetic toxicity of SRA141 was evaluated in vitro.
# [3] = test system: bacterial reverse mutation; assay: In vitro bacterial reverse mutation assay
# From the text: (§3) SRA141 was negative for both mutagenicity and clastogenicity in in vitro bacterial reverse mutation and human lymphocyte chromosomal aberration assays.
# COLO-205 cells = assay: Cell cycle sensitivity, double thymidine block, flow cytometry; format: cell-based, human; settings: 1 μM added at S or M phase
# Procedure: The sensitivity to SRA141 treatment at the various phases of the cell cycle was determined in Colo-205 cells synchronized with double thymidine block. Upon block release, SRA141 (1 μM) was added as the cells reached either S or M phase.
# [4] = test system: phosphorylated MCM2 (Serine 53); assay: Rat Colo-205 xenograft PK/PD, single dose, tumors at 12 hours; format: in vivo
# Procedure: (§4) Colo-205 tumor-bearing rats were treated with a single dose of SRA141 or vehicle and the tumors were collected 12 hours later. Tumor homogenates prepared from three animals per treatment group were analyzed by LC/MSMS or Western blot.
# (§5) Tumoral inhibition of pMCM2 following SRA141 treatment was also determined in female Rowett nude rats bearing subcutaneous Colo-205 tumors. Twelve hours following a single oral dose of SRA141 (75 or 150 mg/kg), animals were terminated, and tumors were sampled for analysis (n=3 per group). Control animals were administered the same vehicle used in the Colo-205 rat model (see Example 5; n=3 per group). […] Twelve hours after a single dose of SRA141, pMCM2 was inhibited approximately 50% to 60% of control (FIG. 22).
# [5] = as above; format: in vivo; settings: for SRA141 tumor concentration: 12 hours
# Procedure: as §4, §5
# [6] = test system: CDK8 (STAT1, Ser727); CDK7 and 9 (RNA pol II, Ser2); LATS2 (YAP1, Ser127); MCL-1; assay: Cellular substrates of putative off-target kinases in Colo-205 cells; format: cell-based, human
# Procedure: Colo-205 cells were treated with SRA141 (at concentrations between 0.033 and 3.3 μM) for 8 to 24 hours with subsequent assessment of the phosphorylation status of the downstream targets for Cdc7 (MCM2, Ser40/41 and Ser53), and the putative off-target kinases CDK8 (STAT1, Ser727); CDK7 and 9 (RNA pol II, Ser2); LATS2 (YAP1, Ser127) as well as the levels of MCL-1, known to be indirectly controlled by CDK9 (Gregory, 2015).
# [7] = test system: MCM2 at Ser40/41 and Ser53 (MV411 cells); assay: Phosphorylation status of Cdc7 target MCM2 in cells; format: cell-based
# Procedure: MV411 cells were also treated with SRA141 in a dose-dependent manner (at concentrations between 0.5 and 3.3 μM) and were subsequently assessed for phosphorylation status of MCM2 at Ser40/41 and Ser53.
# human lymphocyte = assay: Human lymphocyte chromosomal aberration assay; format: cell-based; settings: in vitro
# From the text: as §3
# [8] = 4-cycle repeat oral dose toxicology study (5 days on/2 days off); format: in vivo, dog; settings: for Cmax / AUC(0-t): plasma, po; for AUC(0-t): read-out: AUC24 h
# Procedure: as §2
# CYP 3A4/5 = assay: In vitro time and metabolism-dependent CYP inhibition; format: in vitro ADME; settings: human
# [9] = 50 mg/kg/day, at NOAEL, rat, female
# [10] = 50 mg/kg/day, at NOAEL, rat, male
# [11] = 100 mg/kg/day, at MTD/HNSTD, rat, female
# [12] = 100 mg/kg/day, at MTD/HNSTD, rat, male
# [13] = 2 mg/kg/day, at NOAEL, dog, female
# [14] = 2 mg/kg/day, at NOAEL, dog, male
# [15] = 10 mg/kg/day, at MTD/HNSTD, dog, female
# [16] = 10 mg/kg/day, at MTD/HNSTD, dog, male
# OAT3, sequence (Q8TCC7 whole entry): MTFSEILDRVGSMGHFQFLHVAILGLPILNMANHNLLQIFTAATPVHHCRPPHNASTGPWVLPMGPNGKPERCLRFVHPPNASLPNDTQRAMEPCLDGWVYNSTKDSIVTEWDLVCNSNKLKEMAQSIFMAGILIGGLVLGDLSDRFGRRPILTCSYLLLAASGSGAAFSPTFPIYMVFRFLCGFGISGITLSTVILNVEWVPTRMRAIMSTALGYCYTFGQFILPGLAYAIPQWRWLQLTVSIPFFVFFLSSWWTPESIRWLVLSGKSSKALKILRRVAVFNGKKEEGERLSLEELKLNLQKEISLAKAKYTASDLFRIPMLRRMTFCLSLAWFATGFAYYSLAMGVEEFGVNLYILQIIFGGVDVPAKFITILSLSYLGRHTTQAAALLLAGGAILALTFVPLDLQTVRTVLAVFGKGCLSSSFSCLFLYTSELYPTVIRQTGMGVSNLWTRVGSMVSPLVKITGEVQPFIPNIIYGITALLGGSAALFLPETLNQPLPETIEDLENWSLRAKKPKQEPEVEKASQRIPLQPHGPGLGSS
structure (smiles),measurement,setting,value
CCOC(=O)C1=C(NN2CCN(CC(F)(F)F)CC2)O/C(=C\c2c[nH]c3ncccc23)C1=O [SRA141],"TGI, additional studies",MV-4-11 tumor xenografts; day 27 of treatment,92%
same,"TGI, additional studies",MV-4-11 tumor xenografts; day 34 of treatment,85%
same,IC50,EOL-1,0.27 µM
same,IC50,MV-4-11,1.44 µM
same,IC50,Molm-16,0.24 µM
same,inhibition at 10 µM,OAT3,> 50%
same,bioavailability,[1],31 to 54%
same,MTD at 4 cycles (5 days on/2 days off),"[2]; in vivo, oral, rat (MTD), read-out: MTD/HNSTD Dose",100 mg/kg/day
same,Cmax,[2]; [9],711 ng/mL
same,AUC(0-t),[2]; [9],8550 ng·h/mL
same,Cmax,[2]; [10],289 ng/mL
same,AUC(0-t),[2]; [10],2870 ng·h/mL
same,Cmax,[2]; [11],1610 ng/mL
same,AUC(0-t),[2]; [11],29000 ng·h/mL
same,Cmax,[2]; [12],390 ng/mL
same,AUC(0-t),[2]; [12],5130 ng·h/mL
same,NOAEL Dose,[2]; rat,300 mg/m2/day
same,MTD/HNSTD Dose,[2]; rat (MTD),600 mg/m2/day
same,potential target organs for SRA141-related toxicity,[2]; rat and dog repeat-dose studies together,"gallbladder/biliary system, lymphoid tissues (spleen, thymus, lymph node and GALT), bone marrow, liver, kidney, male and female reproductive tract, peripheral leukocytes, and salivary gland"
same,NOAEL at 4 cycles (5 days on/2 days off),"[2]; rat, in vivo, oral",50 mg/kg/day
same,mutagenicity,[3],negative
same,sub-G1 (apoptotic) population by cell cycle phase of treatment,COLO-205 cells,accumulated as the cells progressed through M phase provided they were treated with SRA141 during the preceding S phase
same,decrease in phosphorylated MCM2 (Serine 53) compared to vehicle,"[4]; at tumor concentration of approximately 1.2 μM, 12 hours",~50%
same,intra-tumoral tissue concentration sufficient to inhibit pMCM2 by 50%,[4]; rat Colo-205 tumors,1 μM
same,SRA141 tumor concentration,[5]; 75 mg/kg single oral dose,~0.5 µg/mL
same,SRA141 tumor concentration,[5]; 150 mg/kg single oral dose,~0.9 µg/mL
same,concentration at 12 h,"[5]; female, Rowett nude, rat, tumor, oral, single dose, tumors collected 12 hours later, read-out: tumor SRA141 concentration",~1200 nM
same,"inhibition of STAT1, YAP1 and MCL-1",[6]; 3.3 μM,Minimal inhibition
same,phosphorylation status (or protein level of MCL-1) of off-target substrates,[6]; up to 1 μM,no significant change
same,concentration from which MCM2 phosphorylation at Ser40/41 and Ser53 was reduced,[7],0.5 µM
same,clastogenicity,human lymphocyte,negative
same,NOAEL Dose,[8]; dog,40 mg/m2/day
same,MTD/HNSTD Dose,[8]; dog (HNSTD),200 mg/m2/day
same,NOAEL at 4 cycles (5 days on/2 days off),"[8]; dog, in vivo, oral",2 mg/kg/day
same,MTD at 4 cycles (5 days on/2 days off),"[8]; in vivo, oral, dog (HNSTD)",10 mg/kg/day
same,Cmax,[8]; [13],129 ng/mL
same,AUC(0-t),[8]; [13],804 ng·h/mL
same,Cmax,[8]; [14],98 ng/mL
same,AUC(0-t),[8]; [14],859 ng·h/mL
same,Cmax,[8]; [15],576 ng/mL
same,AUC(0-t),[8]; [15],6840 ng·h/mL
same,Cmax,[8]; [16],497 ng/mL
same,AUC(0-t),[8]; [16],5660 ng·h/mL
same,potential target organs for SRA141-related toxicity,"[8]; rat and dog repeat-dose studies together, dog most sensitive species","gallbladder/biliary system, lymphoid tissues (spleen, thymus, lymph node and GALT), bone marrow, liver, kidney, male and female reproductive tract, peripheral leukocytes, and salivary gland"
same,IC50,CYP 3A4/5,6.2 to 6.7 µM
